Laboratory results from paper PMC6036174 (Frontiers in Microbiology, 2018).
Where two headings read alike, the source gives them in different places.

How the values were obtained:
[1] = tested on: A549 lung epithelial cells; experiment: A549 cell cytotoxicity (MTT); conditions: 48 h incubation, MTT, called CC50 in methods; for IC50: read-out: Cytotoxicity IC50 A549 cells
[2] = tested on: VERO (ATCC CCL-81) normal epithelial cells; experiment: VERO cell cytotoxicity (resazurin); conditions: 24 h incubation, called CC50 in methods; for IC50: read-out: Cytotoxicity IC50 VERO cells
[3] = tested on: M. tuberculosis H37Rv; conditions: cited from earlier work
[4] = tested on: M. tuberculosis H37Rv (ATCC 27294); experiment: resazurin microtiter assay, MIC against M. tuberculosis H37Rv; type: cell-based, Mycobacterium tuberculosis; conditions: 7 days 37°C, 90% inhibition of growth
[5] = tested on: M. tuberculosis CDC1551; experiment: broth tube MIC (visible pellet) against M. tuberculosis CDC1551; type: cell-based, Mycobacterium tuberculosis; conditions: for MIC100 / MIC / fold increase in potency compared to INH: M. tuberculosis CDC1551; for MIC100 / MIC: 14 days 37°C, no visible pellet; for MIC: read-out: MIC100
[6] = tested on: G. mellonella larvae; experiment: in vivo toxicity in Galleria mellonella larvae; conditions: for % Mortality: 72 h post-injection; for In vivo G. mellonella tolerance order in μmol / In vivo G. mellonella tolerance order in μmol (Normalized against no. of phens): rank; for In vivo G. mellonella tolerance order in μmol: 1st = best tolerated, from Table 2; for In vivo G. mellonella tolerance order in μmol (Normalized against no. of phens): normalized with respect to phen content
Protocol: G. mellonella larvae in the 6th developmental stage were used to determine the in vivo cytotoxicity of the test complexes (Kellett et al., [2011]; Desbois and Coote, [2012]; McCann et al., [2012]). Thirty healthy larvae, each weighing between 0.2 and 0.4 g and with no cuticle discolouration, were used for each experiment. Fresh solutions of the test complexes were prepared immediately prior to testing under sterile conditions. Test compounds (0.05 g) were dissolved in DMSO (1 mL) and added to sterile water (9 mL) to give a stock solution/suspension (5,000 μg/mL). Test solutions/suspensions were prepared from the corresponding stock solution using Millipore water only to dilute to the desired concentration and each compound was screened across the concentration range of 5,000–100 mg/L. Test solutions/suspensions (20 μL) were administered to the larvae by injection directly into the haemocoel through the last pro-leg. The base of the pro-leg can be opened by applying gentle pressure to the sides of the larvae and this aperture will re-seal after removal of the syringe without leaving a scar. Larvae were placed in sterile Petri dishes and incubated at 30°C for 72 h. The survival of the larvae was monitored every 24 h. Death was assessed by the lack of movement in response to stimulus together with discolouration of the cuticle. Three controls were employed in all assays. The first consisted of untouched larvae maintained at the same temperature as the test larvae. The second was larvae with the pro-leg pierced with an inoculation needle but no solution injected. The third control was larvae that were inoculated with 20 μL of sterile water.

[7] = solubility in water (descriptive); type: physicochemical
[8] = M. tuberculosis H37Rv, ref Hoffman et al., [2013]
[9] = M. tuberculosis H37Rv, ref Oliveira et al., [2014]
[10] = H37Rv, ref Segura et al. ([2014])
[11] = 40 μg per larvae (133.33 mg/kg)
[12] = 100 μg per larvae (333.33 mg/kg)

O.O.[Cl-].[Cl-].[Mn+2] [MnCl2·2H2O, reference compound]
Cytotoxicity IC50 A549 cells [1]: 153.4 µg/mL
Cytotoxicity IC50 VERO cells [2]: 92.1 µg/mL

[Cl-].[Cl-].[Mn+2] [MnCl2·2H2O, reference compound]
IC50 [1]: 947 µM
IC50 [2]: 569 µM

O=P([O-])(O)OP(=O)([O-])O.[Co+2].c1cnc2c(c1)ccc1cccnc12.c1cnc2c(c1)ccc1cccnc12 [[Co(phen)2(H2P2O7)]]
MIC [3, 8]: 2.05 µM

O.O=P([O-])(O)OP(=O)([O-])O.[Cu+2].c1cnc2c(c1)ccc1cccnc12 [[Cu(phen)(H2O)(H2P2O7)]]
MIC [3, 8]: 71.53 µM

CNC(=S)N/N=C(\C)c1ccccn1.CNC(=S)N/N=C(\C)c1ccccn1.[Mn+2] [[Mn(atc-Me)2]]
MIC [3, 9]: 50.69 µM

C/C(=N\NC(=S)Nc1ccccc1)c1ccccn1.C/C(=N\NC(=S)Nc1ccccc1)c1ccccn1.[Mn+2] [[Mn(atc-Ph)2]]
MIC [3, 9]: 1.31 µM

NC(N)=S.NC(N)=S.O=S(=O)([O-])C(F)(F)F.O=S(=O)([O-])C(F)(F)F.[Ag+].[Ag+].c1cnc2c(c1)ccc1cccnc12.c1cnc2c(c1)ccc1cccnc12 [[{Ag(phen)(μ-tu)}2]X2 (X = CF3 SO3-), [{Ag(phen)(μ-tu)}2]X2]
MIC [3, 10]: 14.2 µM

NC(N)=S.NC(N)=S.O=[N+]([O-])[O-].O=[N+]([O-])[O-].[Ag+].[Ag+].c1cnc2c(c1)ccc1cccnc12.c1cnc2c(c1)ccc1cccnc12 [[{Ag(phen)(μ-tu)}2]X2 (X = NO3-), [{Ag(phen)(μ-tu)}2]X2]
MIC [3, 10]: 11.0 µM

O.O.O=C([O-])c1ccccc1C(=O)[O-].[Mn+2].c1cnc2c(c1)ccc1cccnc12 [compound 5, [Mn(ph)(phen)(H2O)2]]
MIC90 [4]: 0.57 µg/mL
MIC90 ([4]; read-out: MIC90): 1.31 µM
MIC100 [5]: < 0.19 µg/mL
MIC [5]: < 0.44 µM
% Mortality ([6]; 10 μg per larvae (33.33 mg/kg)): 0%
% Mortality ([6]; 20 μg per larvae (66.67 mg/kg)): 80%
% Mortality [6, 11]: 90%
% Mortality [6, 12]: 90%
In vivo G. mellonella tolerance order in μmol [6]: 6th
In vivo G. mellonella tolerance order in μmol (Normalized against no. of phens) [6]: 6th
solubility in water [7]: water-insoluble
Cytotoxicity IC50 A549 cells [1]: 234.51 µg/mL
IC50 [1]: 539 µM
Cytotoxicity IC50 VERO cells [2]: 15.6 µg/mL
IC50 [2]: 35.8 µM

O.O.O.O.O.O=C([O-])c1ccccc1C(=O)[O-].[Mn+2].c1cnc2c(c1)ccc1cccnc12.c1cnc2c(c1)ccc1cccnc12 [compound 6, [Mn(ph)(phen)2(H2O)]·4H2O]
MIC90 [4]: 1.42 µg/mL
MIC90 ([4]; read-out: MIC90): 2.12 µM
MIC100 [5]: 0.38 µg/mL
MIC [5]: 0.57 µM
% Mortality ([6]; 10 μg per larvae (33.33 mg/kg)): 0%
% Mortality ([6]; 20 μg per larvae (66.67 mg/kg)): 80%
% Mortality [6, 11]: 90%
% Mortality [6, 12]: 90%
In vivo G. mellonella tolerance order in μmol [6]: 7th
In vivo G. mellonella tolerance order in μmol (Normalized against no. of phens) [6]: 5th
solubility in water [7]: water-insoluble
Cytotoxicity IC50 A549 cells [1]: 259.34 µg/mL
IC50 [1]: 387 µM
Cytotoxicity IC50 VERO cells [2]: 11.7 µg/mL
IC50 [2]: 17.5 µM

O.O.O.O.O=C([O-])c1cccc(C(=O)[O-])c1.O=C([O-])c1cccc(C(=O)[O-])c1.[Mn+2].[Mn+2].c1cnc2c(c1)ccc1cccnc12.c1cnc2c(c1)ccc1cccnc12.c1cnc2c(c1)ccc1cccnc12 [compound 7, [Mn2(isoph)2(phen)3]·4H2O]
MIC90 [4]: 1.56 µg/mL
MIC90 ([4]; read-out: MIC90): 1.48 µM
% Mortality ([6]; 10 μg per larvae (33.33 mg/kg)): 0%
% Mortality ([6]; 20 μg per larvae (66.67 mg/kg)): 60%
% Mortality [6, 11]: 80%
% Mortality [6, 12]: 90%
In vivo G. mellonella tolerance order in μmol [6]: 4th
In vivo G. mellonella tolerance order in μmol (Normalized against no. of phens) [6]: 3rd
solubility in water [7]: water-insoluble
Cytotoxicity IC50 A549 cells [1]: 255.87 µg/mL
IC50 [1]: 244 µM
Cytotoxicity IC50 VERO cells [2]: 125 µg/mL
IC50 [2]: 119 µM

O.O.O.O.O.O.O.O.O.O.O.O.O.O.O.O.O=C([O-])c1cccc(C(=O)[O-])c1.O=C([O-])c1cccc(C(=O)[O-])c1.[Mn+2].[Mn+2].c1cnc2c(c1)ccc1cccnc12.c1cnc2c(c1)ccc1cccnc12.c1cnc2c(c1)ccc1cccnc12.c1cnc2c(c1)ccc1cccnc12.c1cnc2c(c1)ccc1cccnc12 [compound 8, {[Mn(phen)2(H2O)2]}2(isoph)2(phen)·12H2O]
MIC90 [4]: 3.01 µg/mL
MIC90 ([4]; read-out: MIC90): 1.85 µM
fold increase in potency compared to INH [5]: ~3 fold
% Mortality ([6]; 10 μg per larvae (33.33 mg/kg)): 0%
% Mortality ([6]; 20 μg per larvae (66.67 mg/kg)): 80%
% Mortality [6, 11]: 90%
% Mortality [6, 12]: 90%
In vivo G. mellonella tolerance order in μmol [6]: 9th
In vivo G. mellonella tolerance order in μmol (Normalized against no. of phens) [6]: 5th
solubility in water [7]: water-insoluble
Cytotoxicity IC50 A549 cells [1]: 251.76 µg/mL
IC50 [1]: 155 µM
Cytotoxicity IC50 VERO cells [2]: 46.9 µg/mL
IC50 [2]: 28.8 µM

O.O.O.O.O.O=C([O-])c1ccc(C(=O)[O-])cc1.[Mn+2].c1cnc2c(c1)ccc1cccnc12.c1cnc2c(c1)ccc1cccnc12 [compound 9, [Mn(tereph)(phen)2]·5H2O]
MIC90 [4]: 3.41 µg/mL
MIC90 ([4]; read-out: MIC90): 5.09 µM
MIC100 [5]: 0.38 µg/mL
MIC [5]: 0.57 µM
% Mortality ([6]; 10 μg per larvae (33.33 mg/kg)): 0%
% Mortality ([6]; 20 μg per larvae (66.67 mg/kg)): 80%
% Mortality [6, 11]: 90%
% Mortality [6, 12]: 90%
In vivo G. mellonella tolerance order in μmol [6]: 7th
In vivo G. mellonella tolerance order in μmol (Normalized against no. of phens) [6]: 5th
solubility in water [7]: water-insoluble
Cytotoxicity IC50 A549 cells [1]: 251.94 µg/mL
IC50 [1]: 376 µM
Cytotoxicity IC50 VERO cells [2]: 46.9 µg/mL
IC50 [2]: 70 µM

[Cu2(oda)(phen)4](ClO4)2·2.76H2O·EtOH [compound 2]
MIC90 [4]: 16.60 µg/mL
MIC90 ([4]; read-out: MIC90): 12.68 µM
MIC100 [5]: 1.50 µg/mL
MIC [5]: 1.15 µM
% Mortality ([6]; 10 μg per larvae (33.33 mg/kg)): 0%
% Mortality ([6]; 20 μg per larvae (66.67 mg/kg)): 50%
% Mortality [6, 11]: 90%
% Mortality [6, 12]: 90%
In vivo G. mellonella tolerance order in μmol [6]: 3rd
In vivo G. mellonella tolerance order in μmol (Normalized against no. of phens) [6]: 2nd
solubility in water [7]: water-soluble
Cytotoxicity IC50 A549 cells [1]: 0.98 µg/mL
Cytotoxicity IC50 VERO cells [2]: 11.7 µg/mL
IC50 [2]: 8.94 µM

[Mn2(oda)(phen)4(H2O)2][Mn2(oda)(phen)4(oda)2]·4H2O [compound 1]
MIC90 [4]: 1.15 µg/mL
MIC90 ([4]; read-out: MIC90): 0.47 µM
fold increase in potency compared to INH [5]: ~3 fold
fold increase in inhibitory activity against CDC1551 relative to H37Rv ([5]; MIC CDC1551 vs H37Rv): 3 fold
% Mortality ([6]; 10 μg per larvae (33.33 mg/kg)): 0%
% Mortality ([6]; 20 μg per larvae (66.67 mg/kg)): 40%
% Mortality [6, 11]: 90%
% Mortality [6, 12]: 90%
In vivo G. mellonella tolerance order in μmol [6]: 1st
In vivo G. mellonella tolerance order in μmol (Normalized against no. of phens) [6]: 1st
solubility in water [7]: water-soluble
Cytotoxicity IC50 A549 cells [1]: > 512 µg/mL
IC50 [1]: > 208 µM
Cytotoxicity IC50 VERO cells [2]: 375 µg/mL
IC50 [2]: 153 µM

{[Cu(3,6,9-tdda)(phen)2]·3H2O·EtOH}n [compound 4]
MIC90 [4]: 10.03 µg/mL
MIC90 ([4]; read-out: MIC90): 13.48 µM
MIC100 [5]: 0.75 µg/mL
MIC [5]: 1.01 µM
% Mortality ([6]; 10 μg per larvae (33.33 mg/kg)): 0%
% Mortality ([6]; 20 μg per larvae (66.67 mg/kg)): 80%
% Mortality [6, 11]: 90%
% Mortality [6, 12]: 90%
In vivo G. mellonella tolerance order in μmol [6]: 8th
In vivo G. mellonella tolerance order in μmol (Normalized against no. of phens) [6]: 6th
solubility in water [7]: water-soluble
Cytotoxicity IC50 A549 cells [1]: 1.06 µg/mL
IC50 [1]: 1.42 µM
Cytotoxicity IC50 VERO cells [2]: 5.85 µg/mL
IC50 [2]: 7.86 µM

{[Mn(3,6,9-tdda)(phen)2]·3H2O·EtOH}n [compound 3]
MIC90 [4]: 0.56 µg/mL
MIC90 ([4]; read-out: MIC90): 0.76 µM
MIC100 [5]: 0.75 µg/mL
MIC [5]: 1.02 µM
% Mortality ([6]; 10 μg per larvae (33.33 mg/kg)): 0%
% Mortality ([6]; 20 μg per larvae (66.67 mg/kg)): 50%
% Mortality [6, 11]: 80%
% Mortality [6, 12]: 90%
In vivo G. mellonella tolerance order in μmol [6]: 2nd
In vivo G. mellonella tolerance order in μmol (Normalized against no. of phens) [6]: 2nd
solubility in water [7]: water-soluble
Cytotoxicity IC50 A549 cells [1]: 261.67 µg/mL
IC50 [1]: 356 µM
Cytotoxicity IC50 VERO cells [2]: 62.5 µg/mL
IC50 [2]: 85 µM
